Measured values: publication PMC3656107, “Polymorphisms in the F8 Gene and MHC-II Variants as Risk Factors for the Development of Inhibitory Anti-Factor VIII Antibodies during the Treatment of Hemophilia A: A Computational Assessment” (PLoS Computational Biology, 2013)

How the values were obtained:
MHC-II DRB1*11:01 [1] = biological target: T1, MHC-II DRB1*11:01 (Homo sapiens, UniProt P01903+P01911, A100R/A169T/A87E/I96F/K41T/L162R/M171V/P40S/Q125H/Q178H/Q39Y/Q99D/R42S/S66Y/T262R/V115G/W38E); assay: Cell-free REVEAL class II binding assay; settings: signal of test peptide as percentage of allele-specific positive control peptide, fluorescence, conformation-specific monoclonal antibody
Procedure, shortened: (§1)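 Peptide binding to MHC-II alleles was detected by a fluorescent monoclonal antibody recognising natively folded peptide–MHC complexes. Scores are signal as a percentage of an allele-specific positive control T-cell epitope peptide. An intermediate-affinity control peptide was included in each run.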

MHC-II DRB1*15:03 [2] = biological target: T2, MHC-II DRB1*15:03 (Homo sapiens, UniProt P01903+P01911, Y59H); assay: Cell-free REVEAL class II binding assay; settings: signal of test peptide as percentage of allele-specific positive control peptide, fluorescence, conformation-specific monoclonal antibody
T2 construct: purchased ProImmune
Procedure, shortened: as §1

MHC-II DRB1*04:01 [3] = biological target: T3, MHC-II DRB1*04:01 (Homo sapiens, UniProt P01903+P01911, A100K/A169T/F76Y/I96L/K127E/L162R/M171V/N62H/P40V/Q125Y/R42H/S133A/S149N/S66Y/V115G/V209L/W38E); assay: Cell-free REVEAL class II binding assay; settings: signal of test peptide as percentage of allele-specific positive control peptide, fluorescence, conformation-specific monoclonal antibody
Procedure, shortened: as §1

MHC-II DRB1*15:01 [4] = biological target: T4, MHC-II DRB1*15:01 (Homo sapiens, UniProt P01903+P01911); assay: Cell-free REVEAL class II binding assay; settings: signal of test peptide as percentage of allele-specific positive control peptide, fluorescence, conformation-specific monoclonal antibody
T4 construct: purchased ProImmune
Procedure, shortened: as §1

MHC-II DRB1*03:01 [5] = biological target: T5, MHC-II DRB1*03:01 (Homo sapiens, UniProt P01903+P01911, A100K/A102G/A103R/A169T/F55Y/I96L/K41T/L162R/M171V/P40S/Q125H/Q178H/Q39Y/R42S/S66N/T106N/T262R/W38E/Y61H); assay: Cell-free REVEAL class II binding assay; settings: signal of test peptide as percentage of allele-specific positive control peptide, fluorescence, conformation-specific monoclonal antibody
Procedure, shortened: as §1

MHC-II DRB1*07:01 [6] = biological target: T6, MHC-II DRB1*07:01 (Homo sapiens, UniProt P01903+P01911, A100R/A102G/A103Q/D57E/D86V/E43K/F76Y/K127E/L162R/M171V/P40G/Q125H/Q99D/R33Q/R42Y/R54Q/S133A/S66F/T210M/V115G/Y107V/Y59L/Y89S); assay: Cell-free REVEAL class II binding assay; settings: signal of test peptide as percentage of allele-specific positive control peptide, fluorescence, conformation-specific monoclonal antibody
Procedure, shortened: as §1

MHC-II DRB1*11:01 [7] = biological target: T1, MHC-II DRB1*11:01; assay: Cell-free REVEAL class II stability assay; settings: half-life of peptide-MHC-II complex (h, capped at 120) x Binding Score / 100, conformational ELISA
Procedure, shortened: (§2)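 On-rates followed over 96 hr at 10°C and off-rates from dissociating complexes, each sampled at set time points and detected by conformational anti-HLA ELISA, then fitted to one-phase association or dissociation curves to give t1/2. Stability score = half-life × Binding Score / 100; allele-specific positive control peptides.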

MHC-II DRB1*15:03 [8] = biological target: T2, MHC-II DRB1*15:03; assay: Cell-free REVEAL class II stability assay; settings: half-life of peptide-MHC-II complex (h, capped at 120) x Binding Score / 100, conformational ELISA
Procedure, shortened: as §2

MHC-II DRB1*04:01 [9] = biological target: T3, MHC-II DRB1*04:01; assay: Cell-free REVEAL class II stability assay; settings: half-life of peptide-MHC-II complex (h, capped at 120) x Binding Score / 100, conformational ELISA
Procedure, shortened: as §2

MHC-II DRB1*15:01 [10] = biological target: T4, MHC-II DRB1*15:01; assay: Cell-free REVEAL class II stability assay; settings: half-life of peptide-MHC-II complex (h, capped at 120) x Binding Score / 100, conformational ELISA
Procedure, shortened: as §2

MHC-II DRB1*03:01 [11] = biological target: T5, MHC-II DRB1*03:01; assay: Cell-free REVEAL class II stability assay; settings: half-life of peptide-MHC-II complex (h, capped at 120) x Binding Score / 100, conformational ELISA
Procedure, shortened: as §2

MHC-II DRB1*07:01 [12] = biological target: T6, MHC-II DRB1*07:01; assay: Cell-free REVEAL class II stability assay; settings: half-life of peptide-MHC-II complex (h, capped at 120) x Binding Score / 100, conformational ELISA
Procedure, shortened: as §2

T5 sequence (P01903 26-254 limits assumed, other chains not shown): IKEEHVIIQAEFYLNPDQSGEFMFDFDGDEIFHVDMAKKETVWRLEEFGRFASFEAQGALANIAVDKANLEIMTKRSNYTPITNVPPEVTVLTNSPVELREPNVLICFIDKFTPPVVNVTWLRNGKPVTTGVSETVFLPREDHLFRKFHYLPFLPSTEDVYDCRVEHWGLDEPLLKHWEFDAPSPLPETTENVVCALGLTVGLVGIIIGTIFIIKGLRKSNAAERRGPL
T2 sequence (P01903 26-254, other chains not shown): as the sequence (P01903 26-254 limits assumed, other chains not shown) above
T1 sequence (P01903 26-254 limits assumed, other chains not shown): as above

Binding Score (MHC-II DRB1*11:01 [1]) [%]	Binding Score (MHC-II DRB1*15:03 [2]) [%]	Binding Score (MHC-II DRB1*04:01 [3]) [%]	Binding Score (MHC-II DRB1*15:01 [4]) [%]	Binding Score (MHC-II DRB1*03:01 [5]) [%]	Binding Score (MHC-II DRB1*07:01 [6]) [%]	Stability Index (MHC-II DRB1*11:01 [7])	Stability Index (MHC-II DRB1*15:03 [8])	Stability Index (MHC-II DRB1*04:01 [9])	Stability Index (MHC-II DRB1*15:01 [10])	Stability Index (MHC-II DRB1*03:01 [11])	Stability Index (MHC-II DRB1*07:01 [12])	Sequence
0.1	0.0	0.4	0.0	1.7	0.0	0.0	0.0	0.0	0.0	0.1	0.0	SYDGAYAPVLQDFRS [synthetic wild type FVIII 15 mer peptide, region of ns-SNP D1241E]
12.0	0.2	0.2	0.1	0.1	0.0	0.4	0.1	0.0	0.1	0.0	0.0	SRPYNIYPHGITDVR [synthetic wild type FVIII 15 mer peptide, region of ns-SNP R484H]
7.8	13.8	2.4	237.9	0.5	0.1	0.5	16.6	0.2	285.5	0.0	0.0	SDPRCLTRYYSSFVN [synthetic wild type FVIII 15 mer peptide]
